The values that follow come from patent publication US12408662B2, “Hydrogen peroxide and peracid stabilization with molecules based on a pyridine carboxylic acid” (ECOLAB USA INC., priority 2018, dated 2025).

A short description of this series: Stability of peroxyacetic acid compositions with lower acetic acid relative to hydrogen peroxide (Example 3, FIG. 3). Type of series: physicochemical.

SMILES strings stand for the structures.

For the molecule `O=C(O)c1cccnc1` [Niacin, 3-pyridinecarboxylic acid], the “stabilization of peroxyacetic acid (in words)” value is listed as “comparable to commonly used stabilizers”.
